{"source": "patent EP0840781B1", "about": "“METHODS AND DEVICES FOR THE REMOVAL OF PSORALENS FROM BLOOD PRODUCTS” (Cerus Corporation, priority 1995, dated 1996)", "key": {"[1]": {"test_system": "Duck Hepatitis B Virus (DHBV)", "test": "Inactivation of Duck Hepatitis B Virus in platelet concentrate, read out by PCR amplification", "format": "biochemical", "conditions": "5 J/cm^2 UVA", "protocol": "This example describes the protocol for inactivation of Duck Hepatitis B Virus (DHBV), a model for Hepatitis B Virus, using compounds described herein.\nDHBV in duck yolk was added to platelet concentrate (PC) to a final concentration of 2 x 10^7 particles per mL and mixed by gentle rocking for ≥15 min. Psoralens S-70, S-59 and AMT were added to 3 mL aliquots of PC in a Teflon™ mini-bag at concentrations of […]. Samples, including controls without added psoralen, were irradiated with 5 J/cm^2 UVA, with mixing at 1 J/cm^2 increments. After irradiation, leukocytes and platelets were separated from virus by centrifugation. The supernatant containing DHBV was digested overnight with 50 µg/mL proteinase K in a buffer containing 0.5% sodium dodecyl sulphate, 20 mM Tris buffer, pH 8.0, and 5 mM EDTA at 55°C. Samples were extracted with phenolchloroform and chloroform, followed by ethanol precipitation. Purified DNA was then used in PCR amplification reactions with a starting input of 10^6 DHBV genomes from each sample. PCR amplicons were generated using primers pairs DCD03/DCD05 (127 bp), DCD03/DCD06 (327 bp) and DCD03/DCD07 (1072 bp). PCR was performed in a standard PCR buffer containing 0.2 mM each deoxyribonucleoside 5'-triphosphates (dATP, dGTP, dCTP, and dTTP), […] each primer, and 0.5 units Taq polymerase per […]. 30 cycles of amplification were performed with the following thermal profile: 95°C 30 sec, 60° C 30 sec, 72° C 1 min. The amplification was followed by a 7 min incubation at 72° C to yield full length products. [[…]-^32P] dCTP was added at an amount of […] per […] in order to detect and quantify the resulting products. Products were separated by electrophoresis on denaturing polyacrylamide slab gels and counted. The absence of signal in a given reaction was taken to indicate effective inactivation of DHBV."}, "[2]": {"test_system": "Salmonella typhimurium tester strains TA97a, TA98, TA100, TA102, TA1537 and TA1538", "procedure,_shortened": "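Ames pre-incubation test in S. typhimurium TA97a, TA98, TA1537, TA1538 (frameshift) and TA100, TA102 (base-substitution), with or without 10% Aroclor 1254-induced rat liver S-9. Test solutions at 0–500 µg/mL pre-incubated 20 min at 37 °C, plated in histidine/biotin top agar; revertant colonies counted after 44 h at 37 °C.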"}}, "note": "Read-outs that look alike come from different tables or passages of the source.", "data": [{"compound": "Cc1oc2c(C)c3oc(=O)cc(C)c3cc2c1COCCN", "note": "[Compound 2, 4'-(4-amino-2-oxa)butyl-4,5',8-trimethylpsoralen]", "values": [{"measurement": "PCR of the 1072 bp amplicon of DHBV", "setting": "[1]; all concentrations (35, 70, and 100 mM) in PC", "result": "complete inhibition of PCR"}, {"measurement": "inhibition of PCR of the smaller amplicons (127 bp, 327 bp) of DHBV", "setting": "[1]; same concentrations as AMT", "result": "better than did AMT"}, {"measurement": "revertant colonies, TA100 +S9", "setting": "[2]; 5 µg/plate", "result": -18}, {"measurement": "revertant colonies, TA100 -S9", "setting": "[2]; 5 µg/plate", "result": 103}, {"measurement": "revertant colonies, TA1538 +S9", "setting": "[2]; 5 µg/plate", "result": 2}, {"measurement": "revertant colonies, TA1538 -S9", "setting": "[2]; 5 µg/plate", "result": -8}, {"measurement": "revertant colonies, TA98 +S9", "setting": "[2]; 10 µg/plate", "result": 24}, {"measurement": "revertant colonies, TA98 -S9", "setting": "[2]; 10 µg/plate", "result": 28}, {"measurement": "revertant colonies, TA100 +S9", "setting": "[2]; 10 µg/plate", "result": 1}, {"measurement": "revertant colonies, TA100 -S9", "setting": "[2]; 10 µg/plate", "result": 46}, {"measurement": "revertant colonies, TA1537 +S9", "setting": "[2]; 10 µg/plate", "result": 5}, {"measurement": "revertant colonies, TA1537 -S9", "setting": "[2]; 10 µg/plate", "result": 36}, {"measurement": "revertant colonies, TA1538 +S9", "setting": "[2]; 10 µg/plate", "result": 4}, {"measurement": "revertant colonies, TA1538 -S9", "setting": "[2]; 10 µg/plate", "result": -13}, {"measurement": "revertant colonies, TA98 +S9", "setting": "[2]; 50 µg/plate", "result": 35}, {"measurement": "revertant colonies, TA98 -S9", "setting": "[2]; 50 µg/plate", "result": 52}, {"measurement": "revertant colonies, TA100 +S9", "setting": "[2]; 50 µg/plate", "result": 115}, {"measurement": "revertant colonies, TA100 -S9", "setting": "[2]; 50 µg/plate", "result": 182}, {"measurement": "revertant colonies, TA1537 +S9", "setting": "[2]; 50 µg/plate", "result": 40}, {"measurement": "revertant colonies, TA1537 -S9", "setting": "[2]; 50 µg/plate", "result": 282}, {"measurement": "revertant colonies, TA98 +S9", "setting": "[2]; 100 µg/plate", "result": 53}, {"measurement": "revertant colonies, TA98 -S9", "setting": "[2]; 100 µg/plate", "result": 39}, {"measurement": "revertant colonies, TA100 +S9", "setting": "[2]; 100 µg/plate", "result": 96}, {"measurement": "revertant colonies, TA100 -S9", "setting": "[2]; 100 µg/plate", "result": 121}, {"measurement": "revertant colonies, TA1537 +S9", "setting": "[2]; 100 µg/plate", "result": 88}, {"measurement": "revertant colonies, TA1537 -S9", "setting": "[2]; 100 µg/plate", "result": 258}, {"measurement": "revertant colonies, TA98 +S9", "setting": "[2]; 250 µg/plate", "result": 69}, {"measurement": "revertant colonies, TA98 -S9", "setting": "[2]; 250 µg/plate", "result": 29}, {"measurement": "revertant colonies, TA1537 +S9", "setting": "[2]; 250 µg/plate", "result": 744}, {"measurement": "revertant colonies, TA1537 -S9", "setting": "[2]; 250 µg/plate", "result": 176}, {"measurement": "revertant colonies, TA98 +S9", "setting": "[2]; 500 µg/plate", "result": 63}, {"measurement": "revertant colonies, TA98 -S9", "setting": "[2]; 500 µg/plate", "result": 6}, {"measurement": "revertant colonies, TA1537 +S9", "setting": "[2]; 500 µg/plate", "result": 395}, {"measurement": "revertant colonies, TA1537 -S9", "setting": "[2]; 500 µg/plate", "result": 114}, {"measurement": "frameshift mutagenicity (Ames, summary)", "setting": "[2]; two-fold or greater increase in revertants above background and dose dependent response", "result": "weak frameshift mutagenicity in the presence of S9 in TA98 and TA1537"}]}]}
